In patent US20160150778A1, “PLASTIC HAVING A BIOCIDAL SURFACE AND METHOD FOR PRODUCING SAID PLASTIC” (JANSEN AG, priority 2013, published 2016):

Columns and labels:
[1] = discoloration / decomposition of quat on compounding into polyethylene melt; format: physicochemical; design: key: ++: heavy discoloration; +: discoloration; 0: weak discoloration; −: hardly any discoloration
Method: Experiments were carried out in which the additives shown in Table 2 were processed into a polyethylene melt in a concentration of 2.5%, 5% and 10% into polyethylene RT Dowlex 2388. The compounding conditions included 12 minutes of mixing at 210° C. Partial decomposition of the quat was observed during this step.
Part of the time, a strong violet coloration and a (“fishy”) smell of amines were observed, in particular with additives containing multiple methyl groups and at high concentrations. The probable decomposition mechanism is a Hofmann decomposition.

[2] = solubility of the oil in solvents; format: physicochemical
Method: A 250 mL flask was filled with 37.92 g (52.5 mmol) of PEG (400) ditosylate. Approximately 100 mL of acetone was added, followed by 16.5 g (approximately 21.6 mL or 104.9 mmol) of dimethyloctylamine. […] The oil was soluble in acetone, chloroform and water, but insoluble in ethyl acetate.

[3] = 2.5% additive in polyethylene RT Dowlex 2388, 12 minutes of mixing at 210° C
[4] = 5% additive in polyethylene RT Dowlex 2388, 12 minutes of mixing at 210° C
[5] = 10% additive in polyethylene RT Dowlex 2388, 12 minutes of mixing at 210° C

| Compound | discoloration [1, 3] | discoloration [1, 4] | discoloration [1, 5] | solubility ([2]; acetone) | solubility ([2]; chloroform) | solubility ([2]; ethyl acetate) | solubility ([2]; water) |
| --- | --- | --- | --- | --- | --- | --- | --- |
| Br.CCCCCCCCCCCCCCCCCCN(CCCCCCCCCCCCCCCCCC)CCCCCCCCCCCCCCCCCC [additive E] | − | − | − |  |  |  |  |
| CCCCCCCCCCCCCCCCCC[N+](C)(C)CCCCCCCCCCCCCCCCCC [additive C] | 0 | 0 | + |  |  |  |  |
| α,ω-bis(dimethyloctylammonium)PEG(400) ditosylate |  |  |  | soluble | soluble | insoluble | soluble |
| Br.CCCCCCCCCCCCCCCCCCN(C)CCCCCCCCCCCCCCCCCC [additive D] | − | − | 0 |  |  |  |  |
| CCCCCCCCCCCCCCCCCC[N+](C)(C)Cc1ccccc1 [additive A] | + | + | + |  |  |  |  |
| CCCCCCCCCCCCCCCCCC[N+](C)(C)C [additive B] | 0 | + | ++ |  |  |  |  |
